Test results as given in patent US9434764B2, “Skin care compositions and methods comprising selective agonists of melanocortin 1 receptor” (University of Cincinnati, priority 2012, dated 2016).
Entries after “also recorded” stand apart in the source; their conditions may differ. Values belong to the molecule of their own block, whether it stands above or below them.

Columns and labels:
MC1R [1] = target: T1, MC1R (Homo sapiens, UniProt Q01726); assay: Stimulation of cAMP formation in cultured human melanocytes; format: cell-based; design: MC1R is expressed on the cell surface of melanocytes; endogenous in cells; host or cells: cultured human melanocytes; conditions: for cAMP compared to 10 nM αMSH: cultured human melanocytes; for potency in stimulating cAMP formation compared to another peptide: in words
T1 sequence (Q01726 whole entry): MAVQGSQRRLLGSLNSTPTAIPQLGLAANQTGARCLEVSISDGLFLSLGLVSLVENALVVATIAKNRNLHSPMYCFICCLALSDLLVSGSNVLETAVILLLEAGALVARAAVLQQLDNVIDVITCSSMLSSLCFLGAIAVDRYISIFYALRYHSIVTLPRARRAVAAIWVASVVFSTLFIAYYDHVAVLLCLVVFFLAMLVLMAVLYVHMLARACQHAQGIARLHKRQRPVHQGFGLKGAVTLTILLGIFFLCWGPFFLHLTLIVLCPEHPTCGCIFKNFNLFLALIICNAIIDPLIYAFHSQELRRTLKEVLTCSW
Protocol: Peptides were tested on cultured human melanocytes for their capacity to activate MC1R, as measured by stimulating cAMP formation. After 45 minutes of treatment with different concentrations of peptides, cAMP levels were measured using a I^125-labeled radioimmunoassay kit.
(§1) Peptides were tested as described in Example 4 above on cultured human melanocytes for their capacity to activate MC1R, as measured by stimulating cAMP formation, and for their capacity for stimulating tyrosinase activity, the rate-limiting enzyme for melanin synthesis. The tested peptides were synthesized according to the formula: Ar(CH2)mX^1—X^2—CO—X^3—X^4—X^5-(Trp)n-NX^6R wherein X^1 and X^2 are absent, X^3 is His, X^5 is Arg, and X^6 is H. X^4 amino acids were in the D-stereoisomer form, unless otherwise noted.

tyrosinase activity = assay: Stimulation of tyrosinase activity in cultured human melanocytes; format: cell-based; conditions: for TA (tyrosinase activity) compared to 10 nM αMSH: cultured human melanocytes; for effect on tyrosinase activity compared to another peptide / concentration at which significant stimulation of tyrosinase activity begins: 6-day treatment; for effect on tyrosinase activity compared to another peptide: in words
Protocol: Peptides were tested on cultured human melanocytes for their capacity for stimulating tyrosinase activity, the rate-limiting enzyme for melanin synthesis. Melanocytes were treated every other day, for a total of 6 days, with increasing concentrations of peptides. Medium containing H^3-tyrosine, the substrate for tyrosinase, was added to melanocytes 24 hours before the end of the 6-day treatment. Tyrosinase activity was measured by determining the amount of ^3H2O generated as […] is catalyzed by tyrosinase for melanin synthesis.
as §1

MC1R [2] = target: T1, MC1R; assay: cAMP stimulation in heterologous cells expressing human MC1R; format: cell-based; design: expressed in transfected cells; conditions: for EC50: cAMP, heterologous cells; for potency in activation of MC1R compared to MT-II: in words
Protocol: (§2) Receptor selectivity of peptide agonists for hMC1R was determined by stimulation of cAMP in heterologous cells expressing different human melanocortin receptors (MC1R, MC3R, MC4R, and MC5R).

[3] = system: UV-irradiated human melanocytes; assay: Repair of UV-induced cyclobutane pyrimidine dimers (CPD) in human melanocytes; format: cell-based; conditions: for CPD removal at 1 nM compared to 10 nM α-MSH: 1 nM peptide, 48 hours post UV
Protocol: To investigate the effects of peptides on the repair of UV-induced DNA damage, levels of cyclobutane pyrimidine dimers (CPD), the major form of DNA photoproducts, were measured in UV-irradiated human melanocytes with or without peptide treatment. Melanocytes were pretreated with the peptides for 4 days prior to, and for 48 hours post UV exposure, harvested, immunostained by a specific antibody for CPD, and analyzed by flow cytometry.

hMC5R = target: T2, hMC5R (Homo sapiens, UniProt P33032); assay: cAMP stimulation in heterologous cells expressing human MC5R; format: cell-based; conditions: for EC50: cAMP, heterologous cells; for binding of MC5R: in words
T2 construct: expressed in transfected cells
T2 sequence (P33032 whole entry): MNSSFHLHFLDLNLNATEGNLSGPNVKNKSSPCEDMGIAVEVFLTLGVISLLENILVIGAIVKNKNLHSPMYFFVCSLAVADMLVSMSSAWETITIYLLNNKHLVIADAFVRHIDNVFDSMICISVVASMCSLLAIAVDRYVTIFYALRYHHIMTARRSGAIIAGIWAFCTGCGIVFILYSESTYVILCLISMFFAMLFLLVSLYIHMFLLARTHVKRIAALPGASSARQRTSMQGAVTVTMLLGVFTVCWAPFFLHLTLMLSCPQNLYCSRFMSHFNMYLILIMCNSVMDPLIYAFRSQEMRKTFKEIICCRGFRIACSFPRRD
Protocol: as §2

hMC3R = target: T3, hMC3R (Homo sapiens, UniProt P41968); assay: cAMP stimulation in heterologous cells expressing human MC3R; format: cell-based; conditions: for EC50: cAMP, heterologous cells; for binding of MC3R: in words
T3 construct: expressed in transfected cells
T3 sequence (P41968 whole entry): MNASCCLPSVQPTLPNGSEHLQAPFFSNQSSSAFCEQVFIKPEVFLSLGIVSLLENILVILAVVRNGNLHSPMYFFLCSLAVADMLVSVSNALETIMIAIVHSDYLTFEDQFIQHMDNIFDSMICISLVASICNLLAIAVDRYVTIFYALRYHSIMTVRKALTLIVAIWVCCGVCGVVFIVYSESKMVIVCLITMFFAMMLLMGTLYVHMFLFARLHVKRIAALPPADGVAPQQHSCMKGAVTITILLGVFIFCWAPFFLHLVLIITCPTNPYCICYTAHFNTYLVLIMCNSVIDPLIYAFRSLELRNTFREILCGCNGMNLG
Protocol: as §2

[4] = system: UV-irradiated human melanocytes; assay: Repair of UV-induced 8-oxodG in human melanocytes; format: cell-based
Protocol: To investigate the effects of peptides on repair of UV-induced DNA damage, levels of 8-oxodG, a major form of oxidative DNA damage, were measured in UV-irradiated human melanocytes with or without peptide treatment. […] Fluorescence intensity, which correlates with the amount of DNA damage, was quantified using ImagJ software.

hMC4R = target: T4, hMC4R (Homo sapiens, UniProt P32245); assay: cAMP stimulation in heterologous cells expressing human MC4R; format: cell-based; conditions: for EC50: cAMP, heterologous cells
T4 construct: expressed in transfected cells
T4 sequence (P32245 whole entry): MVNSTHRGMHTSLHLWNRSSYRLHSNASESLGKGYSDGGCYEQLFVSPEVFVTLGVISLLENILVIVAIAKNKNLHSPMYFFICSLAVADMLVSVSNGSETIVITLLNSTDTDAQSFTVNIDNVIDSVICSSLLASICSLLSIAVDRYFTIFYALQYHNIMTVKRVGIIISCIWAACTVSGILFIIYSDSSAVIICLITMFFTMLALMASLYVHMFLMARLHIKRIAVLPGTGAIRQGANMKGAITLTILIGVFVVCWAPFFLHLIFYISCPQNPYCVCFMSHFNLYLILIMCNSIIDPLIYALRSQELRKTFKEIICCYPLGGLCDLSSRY
Protocol: as §2

[5] = Peptide storage stability by HPLC; format: physicochemical; conditions: lyophilized, open air, room temperature, 4 months
Protocol: LK-513 (Ph(CH2)3CO-His-(D-4-Bip)-Arg-NHMe) was tested for stability and degradation over a storage period. The peptide was stored in a lyophilized form in open air at room temperature for 4 months. After 4 months, HPLC was performed on a test sample of the peptide in order to measure degradation, using standard methods (FIG. 1). […] Without being bound by theory, it is believed that the enhanced stability is a product of the absence of amide bonds between natural L-L-amino acids in the tripeptides and the existence of only one amide bond between natural amino acids in the tetrapeptides (Arg-Trp). Amide bonds between non-natural D- and natural L-amino acids are less prone to chemical and enzymatic hydrolysis, as evidenced by the FIG. 1. Further, the bulk and hydrophobicity of the X4 amino acid (D-Phe or a bulky hydrophobic analog thereof, such as D-4-Bip in the case of LK-513) shield the polar amid bonds of the peptide from chemical and enzymatic degradation.

mouse MCRs = conditions: in words; cited from earlier work
human melanocytes = assay: Potency in human melanocytes; format: cell-based; conditions: in words
Source text: Satyanarayanajois S. D., et al., Conformations of end-capped melanocortin agonists RCO-X-Z-Arg-Trp-NH2 by 2D-NMR, CD and computations, Peptides Breaking Away: Proceedings of the Twenty-First American Peptide Association 384 (2009). […] Ruwe A. R. et al., Semi-rigid tripeptide agonists of melanocortin receptors, Bioorg. Med. Chem. Lett. 19(17): 5176-81 (2009). […] Thus, while not desiring to be bound by theory, it is believed that the conformational restraints favorable for longer peptides may be unfavorable for shorter MC1R agonists, including the Formula I and Formula II peptides disclosed herein.

Molecule: 3,4-O(CH2)2C6H4CH2CO-His-(D-4-FPhe)-Arg-Trp-NH2 [LK 210P]
cAMP compared to 10 nM αMSH (MC1R [1]): ≧

Molecule: 4-FC6H4CH2CO-His-(D-4-FPhe)-Arg-Trp-NH2 [LK 205P]
TA (tyrosinase activity) compared to 10 nM αMSH (tyrosinase activity): ≧ | cAMP compared to 10 nM αMSH (MC1R [1]): ≦

Molecule: N=C(N)NCCC[C@H](NC(=O)[C@@H](Cc1ccccc1)NC(=O)[C@H](Cc1c[nH]cn1)NC(=O)CCCc1ccccc1)C(=O)N[C@@H](Cc1c[nH]c2ccccc12)C(N)=O [LK-184, Ph(CH2)3CO-His-(D-Phe)-Arg-Trp-NH2]
EC50 (MC1R [2]): 0.19 nM | CPD removal at 1 nM compared to 10 nM α-MSH [3]: same effect at 1 nM on CPD removal as 10 nM α-MSH | EC50 (hMC5R): 262 nM | EC50 (hMC3R): 22.7 nM | effect on tyrosinase activity compared to another peptide (tyrosinase activity; human melanocytes): comparable effects in tyrosinase activity | concentration giving maximal cAMP (MC1R [1]; human melanocytes, 45 minutes of treatment): 10 nM

Molecule: Ph(CH2)3CO-His-(D-1-Nal)-Arg-NH2 [LK 510P]
TA (tyrosinase activity) compared to 10 nM αMSH (tyrosinase activity): NR (NR = No Response/inactive at 10 nM)

Molecule: Ph(CH2)3CO-His-(D-1-Nal)-Arg-NHMe [LK 512P]
TA (tyrosinase activity) compared to 10 nM αMSH (tyrosinase activity): NR (NR = No Response/inactive at 10 nM)

Molecule: Ph(CH2)3CO-His-(D-2-Nal)-Arg-NH2 [LK 515P]
TA (tyrosinase activity) compared to 10 nM αMSH (tyrosinase activity): <<

Molecule: Ph(CH2)3CO-His-(D-2-Nal)-Arg-NHMe [LK 517P]
TA (tyrosinase activity) compared to 10 nM αMSH (tyrosinase activity): <<<

Molecule: Ph(CH2)3CO-His-(D-2-Nal)-Arg-Trp-NH2 [LK 468P]
cAMP compared to 10 nM αMSH (MC1R [1]): ≦

Molecule: Ph(CH2)3CO-His-(D-4-tBuPhe)-Arg-NHMe [LK 516P]
TA (tyrosinase activity) compared to 10 nM αMSH (tyrosinase activity): <<

Molecule: trans-4-HOC6H4CH═CHCO-His-D-Phe-Arg-NH2
MC1R selectivity and potency at mouse MCRs compared to LK-394 (mouse MCRs): moderately increased MC1R selectivity and potency | potency in human melanocytes (human melanocytes): less potent

More lines, main results first:

EC50 (MC1R [2]): 0.34 nM | EC50 (hMC5R): 122 nM | EC50 (hMC3R): 32.4 nM | potency compared to α-MSH in activating MC1R and stimulating melanogenesis (tyrosinase activity; human melanocytes, tyrosinase activity): at least 100 times | potency in stimulating cAMP formation compared to another peptide (MC1R [1]; human melanocytes): more potent than LK-184 | EC50 (hMC4R): 0.0181 µM | potency at hMC4R compared to LK-184 (hMC4R; in words): about ten times less potent
Molecule: N=C(N)NCCC[C@H](NC(=O)[C@@H](Cc1cccc2ccccc12)NC(=O)[C@H](Cc1c[nH]cn1)NC(=O)CCCc1ccccc1)C(=O)N[C@@H](Cc1c[nH]c2ccccc12)C(N)=O [LK-467, Ph(CH2)3CO-His-(D-1-Nal)-Arg-Trp-NH2]
CPD removal at 1 nM compared to 10 nM α-MSH [3]: same effect at 1 nM on CPD removal as 10 nM α-MSH | reduction of CPD levels compared to LK-184 ([3]; 48 hours after UV exposure): as effective as LK-184 | reduction of 8-oxodG levels compared to LK-184 ([4]; 24 hours after UV exposure): as effective as LK-184 | effect on tyrosinase activity compared to another peptide (tyrosinase activity; human melanocytes): comparable effects in tyrosinase activity

EC50 (MC1R [2]): 1.46 nM | potency in activation of MC1R compared to MT-II (MC1R [2]): about as potent as MT-II | EC50 (hMC5R): > 10000 nM | binding of MC5R (hMC5R): do not bind | EC50 (hMC3R): > 10000 nM | binding of MC3R (hMC3R): do not bind | TA (tyrosinase activity) compared to 10 nM αMSH (tyrosinase activity): < | concentration at which significant stimulation of tyrosinase activity begins (tyrosinase activity; human melanocytes): 1 nM | potency in stimulating cAMP formation compared to another peptide (MC1R [1]; human melanocytes): about ten times less potent than α-MSH | EC50 (hMC4R): > 10 µM | binding of MC4R (hMC4R; in words): do not bind
Molecule: N=C(N)NCCC[C@H](NC(=O)[C@@H](Cc1ccc(-c2ccccc2)cc1)NC(=O)[C@H](Cc1c[nH]cn1)NC(=O)CCCc1ccccc1)C(N)=O [LK-511, Ph(CH2)3CO-His-(D-4-Bip)-Arg-NH2]

EC50 (MC1R [2]): 3.27 nM | potency in activation of MC1R compared to MT-II (MC1R [2]): about as potent as MT-II | EC50 (hMC5R): > 10000 nM | binding of MC5R (hMC5R): do not bind | EC50 (hMC3R): > 10000 nM | binding of MC3R (hMC3R): do not bind | TA (tyrosinase activity) compared to 10 nM αMSH (tyrosinase activity): < | concentration at which significant stimulation of tyrosinase activity begins (tyrosinase activity; human melanocytes): 1 nM | potency in stimulating cAMP formation compared to another peptide (MC1R [1]; human melanocytes): about ten times less potent than α-MSH | EC50 (hMC4R): > 10 µM | binding of MC4R (hMC4R; in words): do not bind
Molecule: CNC(=O)[C@H](CCCNC(=N)N)NC(=O)[C@@H](Cc1ccc(-c2ccccc2)cc1)NC(=O)[C@H](Cc1c[nH]cn1)NC(=O)CCCc1ccccc1 [LK-513, Ph(CH2)3CO-His-(D-4-Bip)-Arg-NHMe]
stability and degradation by HPLC [5]: highly stable and resistant to degradation, showing only a single HPLC peak; also recorded: highly stable and substantially free of degradation

EC50 (MC1R [2]): 3.65 nM | potency in activation of MC1R compared to MT-II (MC1R [2]): about as potent as MT-II | EC50 (hMC5R): > 10000 nM | binding of MC5R (hMC5R): do not bind | EC50 (hMC3R): > 10000 nM | binding of MC3R (hMC3R): do not bind | TA (tyrosinase activity) compared to 10 nM αMSH (tyrosinase activity): < | concentration at which significant stimulation of tyrosinase activity begins (tyrosinase activity; human melanocytes): 1 nM | effect on tyrosinase activity compared to another peptide (tyrosinase activity; human melanocytes): the most effective | EC50 (hMC4R): > 10 µM | binding of MC4R (hMC4R; in words): do not bind
Molecule: CC(C)(C)c1ccc(C[C@@H](NC(=O)[C@H](Cc2c[nH]cn2)NC(=O)CCCc2ccccc2)C(=O)N[C@@H](CCCNC(=N)N)C(N)=O)cc1 [LK-514, Ph(CH2)3CO-His-(D-4-tBuPhe)-Arg-NH2]
reduction of 8-oxodG levels at 100 nM compared to 1 nM α-MSH ([4]; 100 nM peptide, 24 hours post UV): greater effect than 1 nM α-MSH | potency in stimulating cAMP formation compared to another peptide (MC1R [1]; human melanocytes): about ten times less potent than α-MSH; also recorded: more potent than LK-511 or 513; also recorded: more potent than LK-511 or LK-513

effect on tyrosinase activity compared to another peptide (tyrosinase activity; human melanocytes): equipotent to LK-467 | potency in stimulating cAMP formation compared to another peptide (MC1R [1]; human melanocytes): equipotent to LK-467
Molecule: Ph(CH2)3CO-His-(D-Phe)-Arg-Trp-NHEt [LK-487]
